The EC50 is the midpoint of the concentration-response curve.

This note sets out measurements from patent publication US12370183B2, “Compositions and methods for treating malaria” (Rutgers, The State University of New Jersey, priority 2020, dated 2025).

Each structure is given as a SMILES string. Where two headings read alike, the source gives them in different places.

The subject of data set [1] is resistant P. falciparum variant K1. As to the kind of experiment: Potency against resistant P. falciparum variant K1 (EC50). The data set is classed as cell-based. Particulars: Plasmodium falciparum, K1, read-out: K1 EC50 (μM). The procedure:
(§1) A high-throughput screen performed against the Plasmodium parasite. About 8,000 compounds were screened. Each hit was tested against resistant P. falciparum variants K1, V1S, D10DD, ATP4 1247, and C2B. Potency against these assays assured that the chemotype acts through a mechanism distinct from that of halofantrine, chloroquine, mefloquine, pyrimethamine, proguanil, atovaquone, and (+)SJ733. The toxicity of the compounds was also measured by testing their lethality against a BJ cell line (human fibroblasts). No TBNs were toxic. A structure activity investigation was performed in order to improve the EC50 of the TBNs to the single-digit nanomolar range, as well as to increase the water solubility.
(§2) Substituents were installed at N−2 by using a variety of methods. Reductive alkylation (Abdel-Magid, A. F.; Mehrman, S. J. A Review on the Use of Sodium Triacetoxyborohydride in the Reductive Amination of Ketones and Aldehydes. Org. Process Res. Dev. 2006, 10 (5), 971-1031) was a dependable technique that produced over fifteen analogues. Conjugate additions and nucleophilic substitutions provided most of the others. A type of reductive alkylation that uses carboxylic acids instead of aldehydes (the Beller reduction) led to two analogues (Sorribes, I.; Junge, K.; Beller, M. Direct Catalytic N-Alkylation of Amines with Carboxylic Acids. J. Am. Chem. Soc. 2014, 136 (40), 14314-14319. Some of the compounds listed were synthesized through other means, or were derived from other TBNs. Compounds 66 and 128 were produced by the amidation of acids 132 and 133, which had the corresponding substitution already installed. TBNs 93, and 94 were produced from the Pfitzinger products formed from the condensation of isatin with (R)-1-(1-phenylethyl)piperidin-4-one (134) and (S)-1-(1-phenylethyl)piperidin-4-one (135), respectively.

Data set [2] has as its system 3D7 strain of Plasmodium falciparum. As to the kind of experiment: Potency in the 3D7 strain of Plasmodium falciparum (EC50). The data set is classed as cell-based. Particulars: for EC50: Plasmodium falciparum.
Description: (§3) The present invention relates to methods of treating malaria with tetrahydrobenzonaphtyridine carboxanilide (TBN) derivatives and related pyrrolinones and hydrolysis products thereof. These compounds are active against Plasmodium falciparum strains that are resistant to multiple drugs currently on the market. The present invention further relates to novel compounds and pharmaceutical compositions comprising such compounds. The compounds have been synthesized and tested for their potency in the 3D7 strain of Plasmodium falciparum. Their cytotoxicity was also tested in the BJ human fibroblast line. No compounds show significant cytotoxicity.
as §1, §2

Another data set can be described thus: in vitro. Conditions: human. The data set is classed as cell-based.
Description: as §3, §1

Data set [3] in a line: Solubility of the desbenzo analogue compared with 66. The data set is classed as physicochemical. The procedure: For example, the melting point of 66 is 220° C. and the desbenzo analogue is 83.5° C.
The mark [4] stands for this setting: 3D7, read-out: 3D7 Mean EC50 (μM).

As for `C=CCN1CCc2nc3ccccc3c(C(=O)Nc3ccc(F)c(F)c3)c2C1` [Compound 92, 2-Allyl-N-(3,4-difluorophenyl)-1,2,3,4-tetrahydrobenzo[b][1,6]naphthyridine-10-carboxamide], the figures for the concentration giving a half-maximal response (EC50) (in data set [1]; in data set [2] (setting [4]); in the data set “in vitro”) were 0.0719 µM, 0.128 ± 0.0238 µM and over 23300 nM, respectively.
In the case of `CN(C)C(=O)CCN1CCc2nc3ccccc3c(C(=O)Nc3ccc(F)c(F)c3)c2C1` [Compound 110, N-(3,4-Difluorophenyl)-2-(3-(dimethylamino)-3-oxopropyl)-1,2,3,4-tetrahydrobenzo[b][1,6]naphthyridine-10-carboxamide], the half-maximal effective concentration (EC50) in data set [1] is 0.658 µM; in data set [2] (setting [4]), 0.888 ± 0.459 µM; in “in vitro” it was over 23300 nM.
On to `O=C1c2c3c(nc4cc(Cl)ccc24)CCN(CCc2ccccc2)C3N1c1ccc(Cl)cc1` (centres unmarked) [Compound 179, 8-Chloro-2-(4-chlorophenyl)-3-phenethyl-2a,3,4,5-tetrahydrobenzo[b]pyrrolo[4,3,2-de][1,6]naphthyridin-1(2H)-one], for which the values for the EC50 (in data set [2] (setting [4]); in “in vitro”) were 0.0059 ± 0.002 µM and 22600 ± 373 nM, respectively.
On the same counts, the results for `O=C(Nc1ccc(Br)cc1)c1c2c(nc3cc(Cl)ccc13)CCN(CCc1ccccc1)C2` [Compound 171, N-(4-Bromophenyl)-7-chloro-2-phenethyl-1,2,3,4-tetrahydrobenzo[b][1,6]naphthyridine-10-carboxamide] are 0.37 ± 0.26 µM and over 24000 nM.
`COc1ccc(N2C(=O)c3c4c(nc5cc(Cl)ccc35)CCN(CCc3ccccc3)C42)cc1OC` (centres unmarked) [Compound 178, 8-Chloro-2-(3,4-dimethoxyphenyl)-3-phenethyl-2a,3,4,5-tetrahydrobenzo[b]pyrrolo[4,3,2-de][1,6]naphthyridin-1(2H)-one]: the concentration giving a half-maximal response (EC50) in data set [2] (setting [4]) is 0.00446 ± 0.002 µM; in the data set “in vitro” it was 9320 ± 6690 nM.
For `O=C(Nc1cccc(Cl)c1)c1c2c(nc3cc(Cl)ccc13)CCN(CCc1ccccc1)C2` [Compound 167, 7-Chloro-N-(3-chlorophenyl)-2-phenethyl-1,2,3,4-tetrahydrobenzo[b][1,6]naphthyridine-10-carboxamide] the same measures were 0.0216 ± 0.012 µM and over 24000 nM.
For the compound `CC(C)(C)OC(=O)N1CCc2nc3ccccc3c(C(=O)Nc3ccc(F)c(F)c3)c2C1` [Compound 87, tert-Butyl 10-((3,4-difluorophenyl)carbamoyl)-3,4-dihydrobenzo[b][1,6]naphthyridine-2(1H)-carboxylate], the figures for the EC50 (in data set [2] (setting [4]); in “in vitro”) were 1.67 ± 0.8 µM and over 23300 nM, respectively.
On the same counts, the results for `O=C1c2c3c(nc4ccc(Cl)cc24)CCN(CCc2ccccc2)C3N1c1ccc(Br)cc1` (centres unmarked) [Compound 182, 2-(4-Bromophenyl)-9-chloro-3-phenethyl-2a,3,4,5-tetrahydrobenzo[b]pyrrolo[4,3,2-de][1,6]naphthyridin-1(2H)-one] are 0.0396 ± 0.017 µM and over 24000 nM.
On the same counts, the results for `N#Cc1cc(NC(=O)c2c3c(nc4cc(Cl)ccc24)CCN(CCc2ccccc2)C3)ccc1F` [Compound 169, 7-Chloro-N-(3-cyano-4-fluorophenyl)-2-phenethyl-1,2,3,4-tetrahydrobenzo[b][1,6]naphthyridine-10-carboxamide] are 0.04 ± 0.032 µM and over 24000 nM.
On to `O=C(Nc1ccc(F)c(F)c1)c1ccnc2c1CN(Cc1ccccc1)CC2` [Compound 68, 6-Benzyl-N-(3,4-difluorophenyl)-5,6,7,8-tetrahydro-1,6-naphthyridine-4-carboxamide], for which, in data set [3], the “solubility, in words” value is listed as “increased solubility versus 66”. In addition, in data set [2] (3D7), it took 3.48 µM to reach a half-maximal effect (EC50).
Take `N#Cc1cc(N2C(=O)c3c4c(nc5cc(Cl)ccc35)CCN(CCc3ccccc3)C42)ccc1F` (centres unmarked) [Compound 184, 5-(8-Chloro-1-oxo-3-phenethyl-2a,3,4,5-tetrahydrobenzo[b]pyrrolo[4,3,2-de][1,6]naphthyridin-2(1H)-yl)-2-fluorobenzonitrile]: the EC50 was 0.0437 ± 0.021 µM in data set [2] (setting [4]) and over 24000 nM in the data set “in vitro”.
On the same counts, the results for `COc1ccc(N2C(=O)c3c4c(nc5ccc(Cl)cc35)CCN(CCc3ccccc3)C42)cc1OC` (centres unmarked) [Compound 185, 9-Chloro-2-(3,4-dimethoxyphenyl)-3-phenethyl-2a,3,4,5-tetrahydrobenzo[b]pyrrolo[4,3,2-de][1,6]naphthyridin-1(2H)-one] are 0.049 ± 0.016 µM and over 24000 nM.
With `N#CCCN1CCc2nc3ccccc3c(C(=O)Nc3ccc(F)c(F)c3)c2C1` [Compound 113, 2-(2-Cyanoethyl)-N-(3,4-difluorophenyl)-1,2,3,4-tetrahydrobenzo[b][1,6]naphthyridine-10-carboxamide], the EC50 in data set [1] is 2.05 ± 0.256 µM; in data set [2] (setting [4]), 1.62 ± 1.25 µM; in “in vitro”, over 23300 nM.
In the case of `O=C1c2c3c(nc4ccc(Cl)cc24)CCN(CCc2ccccc2)C3N1c1cccc(Cl)c1` (centres unmarked) [Compound 176, 9-Chloro-2-(3-chlorophenyl)-3-phenethyl-2a,3,4,5-tetrahydrobenzo[b]pyrrolo[4,3,2-de][1,6]naphthyridin-1(2H)-one], the concentration giving a half-maximal response (EC50) is under 0.00296 µM in data set [2] (setting [4]) and over 24000 nM in “in vitro”.
For `COc1ccc(NC(=O)c2c3c(nc4cc(Cl)ccc24)CCN(CCc2ccccc2)C3)cc1OC` [Compound 166, 7-Chloro-N-(3,4-dimethoxyphenyl)-2-phenethyl-1,2,3,4-tetrahydrobenzo[b][1,6]naphthyridine-10-carboxamide] the same measures were under 0.0132 µM and over 24000 nM.
Regarding `CC(c1ccccn1)N1CCc2nc3ccccc3c(C(=O)Nc3ccc(F)c(F)c3)c2C1` (centres unmarked) [Compound 90, N-(3,4-Difluorophenyl)-2-(1-(pyridin-2-yl)ethyl)-1,2,3,4-tetrahydrobenzo[b][1,6]naphthyridine-10-carboxamide], the figures for the EC50 (in data set [1]; in data set [2] (setting [4]); in “in vitro”) were 0.0439 µM, 0.0603 ± 0.0234 µM and over 11700 nM, respectively.
Take `O=C1c2c3c(nc4ccc(Cl)cc24)CCN(CCc2ccccc2)C3N1c1ccc(Cl)cc1` (centres unmarked) [Compound 181, 9-Chloro-2-(4-chlorophenyl)-3-phenethyl-2a,3,4,5-tetrahydrobenzo[b]pyrrolo[4,3,2-de][1,6]naphthyridin-1(2H)-one]: the EC50 in data set [2] (setting [4]) is 0.0126 ± 0.002 µM; in “in vitro” it was over 24000 nM.
`CC(=O)O[C@H]1CO[C@H]2[C@@H]1OC[C@@H]2Oc1cccc(N2C(=O)c3c4c(nc5ccccc35)CCN(CCc3ccccc3)C42)c1` (stereo partly drawn) [Compound 183, (3S,3aR,6S,6aR)-6-(3-(1-Oxo-3-phenethyl-2a,3,4,5-tetrahydrobenzo[b]pyrrolo[4,3,2-de][1,6]naphthyridin-2(1H)-yl)phenoxy)hexahydrofuro[3,2-b]furan-3-yl Acetate]: in data set [2] (183 versus corresponding TBN 147), the “improvement of potency by oxidation of the TBN to the pyrrolinone” value is reported as “nearly a hundred-fold”. The EC50 in data set [2] (3D7) is 0.0407 µM; in data set [2] (setting [4]) it was 0.0407 ± 0.012 µM; in “in vitro”, over 24000 nM.
Regarding `COC(=O)CCN1CCc2nc3ccccc3c(C(=O)Nc3ccc(F)c(F)c3)c2C1` [Compound 109, Methyl 3-(10-((3,4-difluorophenyl)carbamoyl)-3,4-dihydrobenzo[b][1,6]naphthyridin-2(1H)-yl)propanoate], the EC50 in data set [1] is 0.487 µM; in data set [2] (setting [4]), 0.673 ± 0.107 µM; in the data set “in vitro”, over 23300 nM.
In the case of `CCOCCN1CCc2nc3ccccc3c3c2C1N(c1ccc(F)c(F)c1)C3=O` (centres unmarked) [Compound 180, 2-(3,4-Difluorophenyl)-3-(2-ethoxyethyl)-2a,3,4,5-tetrahydrobenzo[b]pyrrolo[4,3,2-de][1,6]naphthyridin-1(2H)-one], the values for the EC50 (in data set [2] (setting [4]); in “in vitro”) were 0.0087 ± 0.001 µM and over 24000 nM, respectively.
